# Laboratory results from patent publication US7482379B2, “Propenoyl hydrazides” (priority 2004, dated 2009).
# How the values were obtained:
# Caspase-2 = biological target: T1, Caspase-2 (Homo sapiens, UniProt P42575); assay: Caspase-2 progress curve inhibition assay; details: second-order rate constant; Cbz-VDVAD-AFC substrate; Pipes buffer pH 7.2
# T1 sequence (P42575 170-333 limits assumed): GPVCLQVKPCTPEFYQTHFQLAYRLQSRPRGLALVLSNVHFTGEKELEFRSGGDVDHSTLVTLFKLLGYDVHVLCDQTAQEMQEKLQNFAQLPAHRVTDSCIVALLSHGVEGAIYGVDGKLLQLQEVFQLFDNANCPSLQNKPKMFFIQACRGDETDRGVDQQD
# T1 sequence (P42575 348-452 limits assumed): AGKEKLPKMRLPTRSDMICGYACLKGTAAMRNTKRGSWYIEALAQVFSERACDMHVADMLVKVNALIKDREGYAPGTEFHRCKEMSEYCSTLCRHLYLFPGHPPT
# Experimental: Inhibition rates were determined by the progress curve method known in the art. This method is suitable for measuring irreversible inhibition rates with fast inhibitors, where the inhibitor, the substrate and the enzyme are incubated together and the rate of substrate hydrolysis is measured continuously. The rate of substrate hydrolysis in the presence of the inhibitor was monitored for 20 minutes. The progress curve of inhibition, where the product formation approaches an asymptote is described in the equation ln([P∞]−[P])=ln[P∞]−A[I]t where [P] and [P∞] are the product concentrations at t and t=∞ respectively, A is the apparent rate constant in the presence of the substrate. The apparent rate constants were determined from the slopes of plots of ln ([P∞]−[P]) versus time (t) in seconds as previously described, where A=slope/[I].
# (§1) For competitive and irreversible inhibition, the apparent rate constant is converted to the second order rate constant k2 by taking into consideration the effect of the substrate concentration on the apparent rate constant. The second order rate constant is described as in the equation: k2=A*(1+[S]/KM)
# (§2) The concentration of the caspase-3 stock solution was 2 nM in the assay buffer. Assay buffer is a 1:1 mixture of caspase buffer (40 mM Pipes, 200 mM NaCl, 0.2% (w/v) CHAPS, sucrose 20% (w/v)) and 20 mM DTT solution in H2O at pH 7.2. The concentration of the substrate stock solution was 2 mM in DMSO. The enzyme was pre-activated for 10 min at 37° C. in the assay buffer. […] 50 μL of 2 nM enzyme stock solution (final concentration: 1 nM) was added to the mixture after 1 min and reading started immediately for 20 min at 37° C. Inhibition experiments were repeated in duplicate and standard deviations determined.
# The inhibitor stock solution concentrations varied from 5×10^−3 M to 1×10^−4 M in DMSO.
# Caspase-3 = biological target: T2, Caspase-3 (Homo sapiens, UniProt P42574); assay: Caspase-3 progress curve inhibition assay; details: second-order rate constant; Ac-DEVD-AMC substrate; Pipes buffer pH 7.2
# T2 sequence (P42574 29-175 limits assumed): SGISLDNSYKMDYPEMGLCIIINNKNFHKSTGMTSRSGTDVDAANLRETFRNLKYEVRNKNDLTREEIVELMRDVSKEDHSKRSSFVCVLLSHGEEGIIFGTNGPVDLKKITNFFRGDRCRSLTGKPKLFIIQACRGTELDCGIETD
# T2 sequence (P42574 176-277 limits assumed): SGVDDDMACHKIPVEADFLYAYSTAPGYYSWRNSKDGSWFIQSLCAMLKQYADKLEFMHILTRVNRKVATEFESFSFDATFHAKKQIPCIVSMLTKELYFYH
# Experimental: Caspase-2, -3, -6, -7, -8, -9 and -10. […] Inhibition rates were determined by the progress curve method known in the art. This method is suitable for measuring irreversible inhibition rates with fast inhibitors, where the inhibitor, the substrate and the enzyme are incubated together and the rate of substrate hydrolysis is measured continuously. The rate of substrate hydrolysis in the presence of the inhibitor was monitored for 20 minutes. The progress curve of inhibition, where the product formation approaches an asymptote is described in the equation ln([P∞]−[P])=ln[P∞]−A[I]t where [P] and [P∞] are the product concentrations at t and t=∞ respectively, A is the apparent rate constant in the presence of the substrate. The apparent rate constants were determined from the slopes of plots of ln ([P∞]−[P]) versus time (t) in seconds as previously described, where A=slope/[I].
# as §1, §2
# Caspase-6 = biological target: T3, Caspase-6 (Homo sapiens, UniProt P55212); assay: Caspase-6 progress curve inhibition assay; details: second-order rate constant; Ac-DEVD-AMC substrate; Pipes buffer pH 7.2
# T3 sequence (P55212 24-179 limits assumed): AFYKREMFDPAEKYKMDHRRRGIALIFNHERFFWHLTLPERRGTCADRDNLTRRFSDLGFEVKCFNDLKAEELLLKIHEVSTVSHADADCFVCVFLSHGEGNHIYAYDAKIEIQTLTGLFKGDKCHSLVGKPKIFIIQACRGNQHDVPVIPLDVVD
# T3 sequence (P55212 194-293 limits assumed): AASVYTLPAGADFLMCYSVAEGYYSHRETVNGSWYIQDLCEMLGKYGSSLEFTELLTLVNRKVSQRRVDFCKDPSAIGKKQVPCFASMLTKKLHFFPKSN
# Caspase-7 = biological target: T4, Caspase-7 (Homo sapiens, UniProt P55210); assay: Caspase-7 progress curve inhibition assay; details: second-order rate constant; Ac-DEVD-AMC substrate; Pipes buffer pH 7.2
# T4 sequence (P55210 24-198 limits assumed): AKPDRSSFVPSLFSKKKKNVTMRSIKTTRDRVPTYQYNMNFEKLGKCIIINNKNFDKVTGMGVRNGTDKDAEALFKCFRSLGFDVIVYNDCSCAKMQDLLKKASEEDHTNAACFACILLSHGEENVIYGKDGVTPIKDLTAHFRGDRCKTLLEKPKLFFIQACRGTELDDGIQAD
# T4 sequence (P55210 207-303 limits assumed): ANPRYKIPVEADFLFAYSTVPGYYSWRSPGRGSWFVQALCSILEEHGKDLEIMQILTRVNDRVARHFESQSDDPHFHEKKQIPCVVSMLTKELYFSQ
# Caspase-8 = Caspase-8 (Homo sapiens, UniProt Q14790); assay: Caspase-8 progress curve inhibition assay; details: second-order rate constant; Ac-DEVD-AMC substrate; Pipes buffer pH 7.2
# Chain of Caspase-8 (Q14790 217-374 limits assumed): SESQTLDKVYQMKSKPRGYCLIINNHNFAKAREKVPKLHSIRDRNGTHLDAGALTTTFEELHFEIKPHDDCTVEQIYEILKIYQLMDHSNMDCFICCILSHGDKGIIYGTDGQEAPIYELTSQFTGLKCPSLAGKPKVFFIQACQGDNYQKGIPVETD
# Chain of Caspase-8 (Q14790 385-479 limits assumed): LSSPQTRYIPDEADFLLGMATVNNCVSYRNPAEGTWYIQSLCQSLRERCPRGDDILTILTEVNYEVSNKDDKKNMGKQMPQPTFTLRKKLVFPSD
# Caspase-9 = biological target: T5, Caspase-9 (Homo sapiens, UniProt P55211); assay: Caspase-9 progress curve inhibition assay; details: second-order rate constant; Ac-LEHD-AFC substrate; Hepes buffer pH 7.0 with 0.7 M sodium citrate
# T5 sequence (P55211 1-315 limits assumed): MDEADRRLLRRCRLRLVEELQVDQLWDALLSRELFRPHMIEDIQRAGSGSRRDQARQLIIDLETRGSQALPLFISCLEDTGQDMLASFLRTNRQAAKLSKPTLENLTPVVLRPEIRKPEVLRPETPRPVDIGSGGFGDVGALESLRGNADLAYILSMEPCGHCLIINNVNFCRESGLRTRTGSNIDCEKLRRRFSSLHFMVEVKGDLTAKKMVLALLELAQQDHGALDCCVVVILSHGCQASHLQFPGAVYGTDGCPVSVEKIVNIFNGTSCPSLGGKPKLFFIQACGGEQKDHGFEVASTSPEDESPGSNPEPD
# T5 sequence (P55211 331-416 limits assumed): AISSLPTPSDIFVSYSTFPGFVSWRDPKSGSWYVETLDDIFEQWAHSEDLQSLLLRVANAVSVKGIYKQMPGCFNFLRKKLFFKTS
# Experimental: Caspases-2, -3, -6, -7, -8, -9 and -10 were expressed in E. coli and purified in Guy Salvesen's laboratory at the Burnham Institute, La Jolla, Calif., according to the methods known in the art. Inhibition rates were determined by the progress curve method known in the art. This method is suitable for measuring irreversible inhibition rates with fast inhibitors, where the inhibitor, the substrate and the enzyme are incubated together and the rate of substrate hydrolysis is measured continuously. The rate of substrate hydrolysis in the presence of the inhibitor was monitored for 20 minutes. The progress curve of inhibition, where the product formation approaches an asymptote is described in the equation ln([P∞]−[P])=ln[P∞]−A[I]t where [P] and [P∞] are the product concentrations at t and t=∞ respectively, A is the apparent rate constant in the presence of the substrate. The apparent rate constants were determined from the slopes of plots of ln ([P∞]−[P]) versus time (t) in seconds as previously described, where A=slope/[I].
# as §1
# Assay buffer is a 1:1 mixture of buffer (200 mM Hepes, 100 mM NaCl, 0.02% (w/v) CHAPS, sucrose 20% (w/v)) and 20 mM DTT solution in H2O at pH 7.0). The assay buffer was supplemented with 0.7 M sodium citrate. The enzyme was pre-activated for 10 min at 37° C. in the assay buffer.
# Caspase-10 = biological target: T6, Caspase-10 (Homo sapiens, UniProt Q92851); assay: Caspase-10 progress curve inhibition assay; details: second-order rate constant; Ac-DEVD-AMC substrate; Hepes/PEG buffer pH 7.0
# T6 sequence (Q92851 220-415 limits assumed): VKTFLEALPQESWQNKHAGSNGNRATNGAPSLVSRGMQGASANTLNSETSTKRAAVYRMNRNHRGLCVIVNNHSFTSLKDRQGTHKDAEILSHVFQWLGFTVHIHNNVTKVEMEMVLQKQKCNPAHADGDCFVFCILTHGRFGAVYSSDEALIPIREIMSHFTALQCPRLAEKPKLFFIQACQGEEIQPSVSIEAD
# T6 sequence (Q92851 416-521 limits assumed): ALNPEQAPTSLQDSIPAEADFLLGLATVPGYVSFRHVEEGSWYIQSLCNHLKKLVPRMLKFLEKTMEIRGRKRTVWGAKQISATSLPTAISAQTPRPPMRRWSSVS
SMILES,k2 Caspase-2 (Caspase-2) [M⁻¹ s⁻¹],k2 Caspase-3 (Caspase-3),k2 Caspase-6 (Caspase-6),k2 Caspase-7 (Caspase-7),k2 Caspase-8 (Caspase-8),k2 Caspase-9 (Caspase-9),k2 Caspase-10 (Caspase-10)
"CC(C)[C@H](NC(=O)[C@H](CCC(=O)O)NC(=O)[C@H](CC(=O)O)NC(=O)OCc1ccccc1)C(=O)NN(CC(=O)O)C(=O)/C=C/C(=O)NCCc1ccccc1 (relative stereo) [Cbz-Asp-Glu-Val-AAsp-CH═CH—CONHCH2CH2Ph, N^2—(N-Benzyloxycarbonylaspartylglutamylvalyl)-N^1-carboxymethyl-N^1-trans-(3-phenethylcarbamoylpropenoyl)hydrazine]",120,"1,950,000 M^−1s^−1","3,470 M^−1s^−1","267,000 M^−1s^−1","129,000 M^−1s^−1",655 M⁻¹ s⁻¹,"31,400 M^−1s^−1"
CC(C)C[C@H](NC(=O)OCc1ccccc1)C(=O)N[C@@H](CCC(=O)O)C(=O)N[C@H](C(=O)NN(CC(=O)O)C(=O)/C=C/C(=O)NCc1ccc(F)cc1)[C@@H](C)O (relative stereo) [N^2—(N-Benzyloxycarbonylleucylglutamylthreonyl)-N^1-carboxylmethyl-N^1-trans-(3-(4-fluorobenzyl)carbamoylpropenoyl)hydrazine],70,"4,490 M^−1s^−1","3,100 M^−1s^−1",410 M⁻¹ s⁻¹,"171,000 M^−1s^−1","1,695 M^−1s^−1","9,380 M^−1s^−1"
CC(C)C[C@H](NC(=O)OCc1ccccc1)C(=O)N[C@@H](CCC(=O)O)C(=O)N[C@H](C(=O)NN(CC(=O)O)C(=O)/C=C/C(=O)N(C)Cc1cccc2ccccc12)[C@@H](C)O (relative stereo) [N^2—(N-Benzyloxycarbonylleucylglutamylthreonyl)-N^1-carboxylmethyl-N^1-trans-(3-(methyl-1-naphthylmethyl)carbamoylpropenoyl)hydrazine],290,"11,200 M^−1s^−1","21,700 M^−1s^−1","1,100 M^−1s^−1","179,000 M^−1s^−1","5,030 M^−1s^−1","13,600 M^−1s^−1"
"CC[C@H](C)[C@H](NC(=O)OCc1ccccc1)C(=O)N[C@@H](CCC(=O)O)C(=O)N[C@H](C(=O)NN(CC(=O)O)C(=O)/C=C/C(=O)N(Cc1ccccc1)Cc1ccccc1)[C@@H](C)O (relative stereo) [Cbz-Ile-Glu-Thr-AAsp-CH═CH—CON(CH2Ph)2, N^2—(N-Benzyloxycarbonylisoleucylglutamylthreonyl)-N^1-carboxylmethyl-N^1-trans-(3-dibenzylcarbamoylpropenoyl)hydrazine]",76,"9,570 M^−1s^−1","83,900 M^−1s^−1","1,140 M^−1s^−1","39,500 M^−1s^−1","1,930 M^−1s^−1","7,930 M^−1s^−1"
"CC(C)C[C@H](NC(=O)OCc1ccccc1)C(=O)N[C@@H](CCC(=O)O)C(=O)N[C@H](C(=O)NN(CC(=O)O)C(=O)/C=C/C(=O)Nc1ccccc1)[C@@H](C)O (relative stereo) [Cbz-Leu-Glu-Thr-AAsp-CH═CH—CONHPh, N^2—(N-Benzyloxycarbonylleucylglutamylthreonyl)-N^1-carboxylmethyl-N^1-trans-(3-phenylcarbamoylpropenoyl)hydrazine]",290,"4,700 M^−1s^−1","11,400 M^−1s^−1",730 M⁻¹ s⁻¹,"176,000 M^−1s^−1","1,190 M^−1s^−1","6,050 M^−1s^−1"
"CCCCNC(=O)/C=C/C(=O)N(CC(=O)O)NC(=O)[C@@H](NC(=O)OCc1ccccc1)C(C)C (stereo in doubt) [Cbz-Val-AAsp-CH═CH—CONH-nBu, N^2—(N-Benzyloxycarbonylvalyl)-N^1-trans-(3-butylcarbamoylpropenoyl)-N^1-carboxymethylhydrazine]",,184 M⁻¹ s⁻¹,,55 M⁻¹ s⁻¹,,32 M⁻¹ s⁻¹,
"CCOC(=O)/C=C/C(=O)N(CC(=O)O)NC(=O)[C@@H](NC(=O)OCc1ccccc1)C(C)C (stereo in doubt) [Cbz-Val-AAsp-CH═CH—COOEt, N^2—(N-Benzyloxycarbonylvalyl)-N^1-carboxymethyl-N^1-trans-(3-ethoxycarbonylpropenoyl)hydrazine]",,"8,000 M^−1s^−1",,"2,680 M^−1s^−1",,"5,240 M^−1s^−1",389 M⁻¹ s⁻¹
"CC(C)[C@H](NC(=O)OCc1ccccc1)C(=O)NN(CC(=O)O)C(=O)/C=C/C(=O)NCc1ccccc1 (stereo in doubt) [Cbz-Val-AAsp-CH═CH—CONHCH2Ph, N^1-trans-(3-Benzylcarbamoylpropenoyl)-N^2—(N-benzyloxycarbonylvalyl)-N^1-carboxymethylhydrazine]",,185 M⁻¹ s⁻¹,,60 M⁻¹ s⁻¹,,20 M⁻¹ s⁻¹,
CC[C@H](C)[C@H](NC(=O)OCc1ccccc1)C(=O)N[C@@H](CCC(=O)O)C(=O)N[C@H](C(=O)NN(CC(=O)O)C(=O)/C=C/C(=O)N(C)CCc1ccccc1)[C@@H](C)O (relative stereo) [N^2—(N-Benzyloxycarbonylisoleucylglutamylthreonyl)-N^1-carboxylmethyl-N^1-trans-(3-methylphenylethylcarbamoylpropenoyl)hydrazine],38,"5,480 M^−1s^−1",,"1,020 M^−1s^−1","60,500 M^−1s^−1",760 M⁻¹ s⁻¹,"8,770 M^−1s^−1"
